Test results from patent publication US20190308956A1, “PIPERAZINE DERIVATIVES AS ANTIVIRAL AGENTS WITH INCREASED THERAPEUTIC ACTIVITY” (SERVICIO ANDALUZ DE SALUD, priority 2016, published 2019).

Columns and labels:
HAdV5-GFP [1] = experiment: Plaque assay, HAdV5-GFP in 293β5 cells; assay type: cell-based
Protocol: 1.5. Plaque assay. For low MOI infections, active compounds were further evaluated in a plaque assay. 293β5 cells were seeded in 6-well plates at 4×10^5 cells per well in duplicate for each condition. When cells reached 80-90% confluency, they were infected with HAdV5-GFP or HAdV16-GFP (0.06 vp/cell) and rocked for 2 h at 37° C. The inoculum was removed and the cells were washed once with PBS. The cells were then carefully overlaid with 4 ml/well of equal parts of 1.6% […] Difco Agar Noble (Becton, Dickinson & Co, Sparks, MD) and 2× EMEM (BioWhittaker) supplemented with 2x penicillin/streptomycin, 2× L-glutamine and 10% FBS. The mixture also contained compound in concentrations ranging from 5 to 1 μM. Following incubation for 7 days at 37° C., plates were scanned with a Typhoon 9410 imager (GE Healthcare Life Sciences), and plaques were quantified with ImageJ.43
For the plaque assay 293β5 cells were infected with HAdV5-GFP (in the presence of compound at 10 μM) (Table 2). From this generation of compounds, our primary screening identified 4 compounds (12, 13, 22 and 25) that inhibited HAdV5-GFP plaque formation >90% compared to a control with the same volume of DMSO.

[2] = system: Acinetobacter baumannii strains resistant to colistine; experiment: Minimal inhibitory concentration (MIC), microdilution in MHBII; assay type: cell-based; details: 5×10^5 CFU/ml, 18 h; for CMI (MIC) Ab 11: strain Ab 11, MHBII; for CMI (MIC) Ab 14: strain Ab 14, MHBII; for CMI (MIC) Ab 17: strain Ab 17, MHBII; for CMI (MIC) Ab 21R: strain Ab 21R; for CMI (MIC) Ab 21R / CMI (MIC) Ab 22P: MHBII; for CMI (MIC) Ab 22P: strain Ab 22P; for CMI (MIC) Ab 24: strain Ab 24, MHBII
Source text: (§1) All of the strains used were Acinetobacter baumannii strains resistant to colistine: Resistance (R)≥4 Sensibility (S)≤2—All of these strains have been disclosed in Valencia R, Arroyo L A, Conde M, Aldana J M, Torres M J, Fernandez-Cuenca F, et al. Nosocomial outbreak of infection with pan-drug-resistant Acinetobacter baumannii in a tertiary care university hospital. Infection control and hospital epidemiology. 2009; 30(3):257-63. The specific strains used were the following: 1, 10, 11, 14, 16, 17, 19, 20, 21R, 22P, 24, 99 and 113.
Microdilution in cell medium Mueller Hinton Broth II (MHBII). This technique was carried out solely in those piperazines which presented inhibitory activity in the screening study.
We used decreasing concentrations of each piperazine derivative (from 50 μM -0.05 μM) in a concentration of 5×10^5 CFU/ml of each strain of A. baumannii in 96 well plates. These plates were incubated for 18 hours at a temperature 37° C.

HAdV5-GFP [3] = experiment: Entry assay, HAdV5-GFP in A549 cells (GFP expression); assay type: cell-based
Protocol: 1.3. Entry assay. An initial rapid screening was performed using human A549 epithelial cells (3×10^5 cells/well in Corning black wall, clear bottom 96-well plates) infected with HAdV5-GFP (2,000 vp/cell) in the presence of 50 μM of the candidate antiviral compounds. Virus was preincubated with the compounds (individual and mixed) for 45 minutes at 4° C., and then added to cells. A standard infection curve was generated in parallel by infecting cells in the absence of compounds using serial two-fold dilutions of virus. All reactions were done in triplicate. Cells, virus and compounds were incubated for 48 h at 37° C. and 5% CO2. Infection, as measured by HAdV-mediated GFP expression, was analyzed using a Typhoon 9410 imager (GE Healthcare Life Sciences), and quantified with ImageQuantTL (GE Healthcare Life Sciences).

[4] = system: Acinetobacter baumannii strains resistant to colistine; experiment: Screening of inhibition of bacterial growth at 50 μM; assay type: cell-based; details: 5×10^5 CFU/ml, 18 h; for Screening, growth inhibition Ab 11: strain Ab 11, 50 μM; for Screening, growth inhibition Ab 14: strain Ab 14, 50 μM; for Screening, growth inhibition Ab 17: strain Ab 17, 50 μM; for Screening, growth inhibition Ab 21R: strain Ab 21R; for Screening, growth inhibition Ab 21R / Screening, growth inhibition Ab 22P: 50 μM; for Screening, growth inhibition Ab 22P: strain Ab 22P; for Screening, growth inhibition Ab 24: strain Ab 24, 50 μM
Source text: as §1
Evaluation of the inhibition of the bacterial growth of the 4 families of piperazines derivatives was performed by using a final concentration of 50 μM of each piperazine derivative in a concentration of 5×10^5 CFU/ml of each strain of A. baumannii in 96-well plates.
These plates were incubated for 18 hours at 37° C.

A549 cells = experiment: Cytotoxicity assay (alamarBlue cell viability); assay type: cell-based, Human
Protocol: 1.4. Cytotoxicity assay. The cytotoxicity of the compounds was measured using the AlarmBlue cell viability assay (Invitrogen) according to the manufacturer's instructions. Actively dividing A549 cells were incubated with compounds for 48 h. After the incubation the alamarBlue reagent was added to the cells ( 1/10th alamarBlue reagent in culture medium) for an extra 4 h. The 50% cell cytotoxic concentration (CC50) of the molecules was calculated according to Cheng et al.42 The selectivity index (SI) was evaluated as the ratio of CC50 to IC50, where the IC50 is defined as the concentration of compound that inhibits HAdV infection by 50%.

wild-type HAdV5 = experiment: Virus yield reduction (burst assay, TCID50), HAdV5; assay type: cell-based
Protocol: 1.8. Virus yield reduction. The effect of the active compounds on virus production was evaluated in a burst assay A549 cells were infected with wild-type HAdV5 or HAdV16 (MOI 100) in the presence or absence of 50 μM compounds. After 48 h, cells were harvested and subjected to three rounds of freeze/thaw. Serial dilutions of clarified lysates were titrated on A549 cells and TCID50 values were calculated using an endpoint dilution method.46

## CC1CN(C(=O)OC(C)(C)C)CCN1C(=S)Nc1ccc(Cl)cc1 (stereo not drawn) [Vip 580]
HAdV5-GFP [1]
  Inhibition assay in plaque: 73.43 ± 4.19
[2]
  CMI (MIC) Ab 11: 50 µM
  CMI (MIC) Ab 14: 50 µM
  CMI (MIC) Ab 17: 50 µM
  CMI (MIC) Ab 21R: 50 µM
  CMI (MIC) Ab 22P: 50 µM
  CMI (MIC) Ab 24: 50 µM
HAdV5-GFP [3]
  Starting Inhibition assay: 64.11 ± 16.81
[4]
  Screening, growth inhibition Ab 11: <50 µM
  Screening, growth inhibition Ab 14: <50 µM
  Screening, growth inhibition Ab 17: <50 µM
  Screening, growth inhibition Ab 21R: <50 µM
  Screening, growth inhibition Ab 22P: <50 µM
  Screening, growth inhibition Ab 24: <50 µM
A549 cells
  CC50: 167 µM

## CC1CN(C(=O)OC(C)(C)C)CCN1C(=S)Nc1ccc(C#N)cc1 (stereo not drawn) [Vip 584]
HAdV5-GFP [1]
  Inhibition assay in plaque: 88.91 ± 15.92
[2]
  CMI (MIC) Ab 11: 50 µM
  CMI (MIC) Ab 14: 50 µM
  CMI (MIC) Ab 17: 25 µM
  CMI (MIC) Ab 21R: 50 µM
  CMI (MIC) Ab 22P: 50 µM
  CMI (MIC) Ab 24: 50 µM
HAdV5-GFP [3]
  Starting Inhibition assay: 58.11 ± 25.72
[4]
  Screening, growth inhibition Ab 11: <50 µM
  Screening, growth inhibition Ab 14: <50 µM
  Screening, growth inhibition Ab 17: <50 µM
  Screening, growth inhibition Ab 21R: <50 µM
  Screening, growth inhibition Ab 22P: <50 µM
  Screening, growth inhibition Ab 24: <50 µM
A549 cells
  CC50: 175 µM

## CC1CN(C(=O)OC(C)(C)C)CCN1C(=S)Nc1ccc(F)cc1 (stereo not drawn) [Vip 585]
HAdV5-GFP [1]
  Inhibition assay in plaque: 92.91 ± 3.82
wild-type HAdV5
  YIELD REDUCTION: 12.08 ± 2.78
HAdV5-GFP [3]
  Starting Inhibition assay: 75.54 ± 13.76
A549 cells
  CC50: 200 µM

## COc1ccc(NC(=S)N2CCN(C(=O)OC(C)(C)C)CC2C)cc1 (stereo not drawn) [Vip 590]
HAdV5-GFP [1]
  Inhibition assay in plaque: 36.55 ± 30.13
[2]
  CMI (MIC) Ab 14: >50 µM
HAdV5-GFP [3]
  Starting Inhibition assay: 62.79 ± 17.03
[4]
  Screening, growth inhibition Ab 14: <50 µM

## Cc1ccc(NC(=S)N2CCN(C(=O)OC(C)(C)C)CC2C)cc1 (stereo not drawn) [Vip 591]
HAdV5-GFP [1]
  Inhibition assay in plaque: 49.11 ± 4.73
[2]
  CMI (MIC) Ab 14: >50 µM
  CMI (MIC) Ab 17: 50 µM
  CMI (MIC) Ab 21R: 50 µM
HAdV5-GFP [3]
  Starting Inhibition assay: 56.61 ± 17.69
[4]
  Screening, growth inhibition Ab 14: <50 µM
  Screening, growth inhibition Ab 17: <50 µM
  Screening, growth inhibition Ab 21R: <50 µM

## CC1CN(C(=O)OC(C)(C)C)CCN1C(=S)Nc1cc(C(F)(F)F)cc(C(F)(F)F)c1 (stereo not drawn) [Vip 592]
HAdV5-GFP [1]
  Inhibition assay in plaque: 11.11 ± 19.25
[2]
  CMI (MIC) Ab 14: 3.12 µM
HAdV5-GFP [3]
  Starting Inhibition assay: 71.76 ± 15.00
[4]
  Screening, growth inhibition Ab 14: <50 µM

## CC1CN(C(=O)OC(C)(C)C)CCN1C(=S)Nc1ccc(C(F)(F)F)cc1 (stereo not drawn) [Vip 604]
HAdV5-GFP [1]
  Inhibition assay in plaque: 73.43 ± 22.49
[2]
  CMI (MIC) Ab 21R: 25 µM
  CMI (MIC) Ab 22P: 25 µM
  CMI (MIC) Ab 24: 25 µM
HAdV5-GFP [3]
  Starting Inhibition assay: 43.24 ± 17.18
[4]
  Screening, growth inhibition Ab 21R: <50 µM
  Screening, growth inhibition Ab 22P: <50 µM
  Screening, growth inhibition Ab 24: <50 µM

## CC1CN(C(=O)Cc2ccccc2)CCN1C(=S)Nc1ccc(Cl)cc1 (stereo not drawn) [Vip 629]
HAdV5-GFP [1]
  Inhibition assay in plaque: 84.56 ± 15.72
[2]
  CMI (MIC) Ab 11: 25 µM
  CMI (MIC) Ab 14: 25 µM
  CMI (MIC) Ab 17: 25 µM
  CMI (MIC) Ab 21R: 50 µM
  CMI (MIC) Ab 24: 50 µM
HAdV5-GFP [3]
  Starting Inhibition assay: 59.51 ± 17.45
[4]
  Screening, growth inhibition Ab 11: <50 µM
  Screening, growth inhibition Ab 14: <50 µM
  Screening, growth inhibition Ab 17: <50 µM
  Screening, growth inhibition Ab 21R: <50 µM
  Screening, growth inhibition Ab 24: <50 µM
A549 cells
  CC50: 175 µM

## CC1CN(C(=O)Cc2ccccc2)CCN1C(=S)Nc1ccc(C(F)(F)F)cc1 (stereo not drawn) [Vip 633]
HAdV5-GFP [1]
  Inhibition assay in plaque: 45.36 ± 16.56
[2]
  CMI (MIC) Ab 11: 25 µM
  CMI (MIC) Ab 17: 25 µM
  CMI (MIC) Ab 24: 50 µM
HAdV5-GFP [3]
  Starting Inhibition assay: 43.12 ± 17.16
[4]
  Screening, growth inhibition Ab 11: <50 µM
  Screening, growth inhibition Ab 17: <50 µM
  Screening, growth inhibition Ab 24: <50 µM

## Cc1ccc(NC(=S)N2CCN(C(=O)Cc3ccccc3)CC2C)cc1 (stereo not drawn) [Vip 636]
HAdV5-GFP [1]
  Inhibition assay in plaque: 13.79 ± 25.70
[2]
  CMI (MIC) Ab 11: 50 µM
  CMI (MIC) Ab 17: 25 µM
  CMI (MIC) Ab 21R: 25 µM
  CMI (MIC) Ab 24: 50 µM
HAdV5-GFP [3]
  Starting Inhibition assay: 73.72 ± 14.39
[4]
  Screening, growth inhibition Ab 11: <50 µM
  Screening, growth inhibition Ab 17: <50 µM
  Screening, growth inhibition Ab 21R: <50 µM
  Screening, growth inhibition Ab 24: <50 µM

## COc1ccc(NC(=S)N2CCN(C(=O)Cc3ccccc3)CC2C)cc1 (stereo not drawn) [Vip 637]
HAdV5-GFP [1]
  Inhibition assay in plaque: 29.36 ± 36.56
[2]
  CMI (MIC) Ab 17: 50 µM
  CMI (MIC) Ab 24: >50 µM
HAdV5-GFP [3]
  Starting Inhibition assay: 61.99 ± 17.15
[4]
  Screening, growth inhibition Ab 17: <50 µM
  Screening, growth inhibition Ab 24: <50 µM

## CC1CN(C(=O)Cc2ccccc2)CCN1C(=S)Nc1ccc(F)cc1 (stereo not drawn) [Vip 638]
HAdV5-GFP [1]
  Inhibition assay in plaque: 28.90 ± 23.21
[2]
  CMI (MIC) Ab 24: 50 µM
HAdV5-GFP [3]
  Starting Inhibition assay: 72.06 ± 14.91
[4]
  Screening, growth inhibition Ab 24: <50 µM
